The source of these data is PubChem BioAssay AID1508612.

The nature of this series: passive permeability, PAMPA, ADME assay (AID 1508612). To be noted: pH 7.4, 30.0 min, 50.0 µM. (In general: The PAMPA barrier holds no transporters, so it reflects passive diffusion.)

Some results are limits rather than exact numbers.

One may read the Papp as the rate of passage across a membrane or cell layer, normalised by area and donor concentration. High values mean ready permeation, low ones poor permeation. `CCOc1ccc(CCNC(=O)c2cc3sccc3n2C(C)C)cc1OCC` returned a Papp of 897 ×10⁻⁶ cm/s.
In the case of `Cc1sc2c(c1C)C(c1ccc(Cl)cc1)=N[C@@H](CC(=O)OC(C)(C)C)c1nnc(C)n1-2`, the Papp is > 1000 ×10⁻⁶ cm/s.
`COc1ccc(OCc2ccc(-c3nc(C#N)c(NC(C)c4ccccc4)o3)o2)cc1` (configuration not stated): the Papp worked out at 20.9 ×10⁻⁶ cm/s.
As for `Cc1cc(C)c(C(=O)Nc2cccc([S+](=O)([O-])N3CCCCC3)c2)[nH]1`, the figure is 936 ×10⁻⁶ cm/s.
The figure for `COc1c2c(c3c(c1CCC(=O)O)OC(C)(C)C=C3)OC(C)(C)C=C2` is 43.9 ×10⁻⁶ cm/s.
Molecule `CC(=O)Nc1ccc(N[S+](=O)([O-])c2cccc(NC(=O)c3[nH]c(C)c(C(C)=O)c3C)c2)cc1` displayed an apparent permeability (Papp) of 20.6 ×10⁻⁶ cm/s.
Take `COc1ccccc1Nc1ccnc(N2CCN(C(=O)c3ccc(F)cc3)CC2)n1`: the Papp is > 1000 ×10⁻⁶ cm/s.
`CCCNC(=O)Nc1ccc(Oc2ncnc3cc(OC)c(OC)cc23)cc1Cl`: the apparent permeability coefficient (Papp) is 362 ×10⁻⁶ cm/s.
Take `O=C1Nc2ccc(I)cc2C1=Cc1cc(Br)c(O)c(Br)c1`: the apparent permeability (Papp) is 150 ×10⁻⁶ cm/s.
Consider `Fc1ccc(Nc2nccc(-c3ccncc3)n2)cc1F`, for which the apparent permeability (Papp) was > 1000 ×10⁻⁶ cm/s.
The figure for `Fc1cc(F)cc(Nc2nc(-c3ccncc3)nc3ccccc23)c1` is 84.9 ×10⁻⁶ cm/s; for `CC(=O)NC(c1cccs1)c1cc(Br)c2cccnc2c1O` (configuration not stated) it is 73 ×10⁻⁶ cm/s.
Consider `Cc1ccc(S(=O)(=O)Nc2cnccc2C(=O)Nc2cccc3ccccc23)cc1`, for which the Papp was 288 ×10⁻⁶ cm/s.
The figure for `CCNC(=O)Nc1ncc(-c2cc(-c3c(C)cc(OC)cc3C)nc(-c3cnccn3)n2)s1` is 762 ×10⁻⁶ cm/s; for `COc1ccc(-n2nc(C3CCCN(C(=O)C4CC4)C3)[nH]c2=O)cc1` (configuration not stated) it is 113 ×10⁻⁶ cm/s.
As for `NC[C@H](O)c1ccc(O)c(O)c1`, the figure is 5.7 ×10⁻⁶ cm/s; as for `Cc1noc(C)c1-c1ccc2ncnc(N3CCC(C(=O)O)CC3)c2c1`, 1.5 ×10⁻⁶ cm/s.
The figure for `CC(C)COc1ccc(-c2ccc(=O)n(CC(=O)NCCc3ccccc3)n2)cc1` is > 1000 ×10⁻⁶ cm/s.
`Cc1c(-c2cccc(NC(=O)c3ccc(F)c(F)c3)c2)nc2ncccn12` came in with an apparent permeability (Papp) of 908 ×10⁻⁶ cm/s.
The figure for `O=C1CN(C(=O)CCC(=O)N2CCc3c(nc4cc(-c5ccccc5)[nH]n4c3=O)C2)c2ccccc2N1` is < 1 ×10⁻⁶ cm/s; for `Cn1ccc2c(C(=O)NCCC(N)=O)nc(-c3cccc(CO)c3)cc21` it is 29.9 ×10⁻⁶ cm/s.
As for `CC(=O)c1c(C)[nH]c(C(=O)Nc2cccc(S(=O)(=O)Nc3cccc(C#N)c3)c2)c1C`, the apparent permeability coefficient (Papp) was determined as 68.9 ×10⁻⁶ cm/s.
As for `CN(C(=O)CNC(=O)c1ccccc1OCC(=O)Nc1ccc(I)cc1)c1ccccc1`, the Papp was > 1000 ×10⁻⁶ cm/s.
The figure for `Cc1ccc2[nH]c(-c3ccccc3)cc(=O)c2c1` is 74.9 ×10⁻⁶ cm/s; for `CCN1CCN(CCCOc2ccc(-c3ccccc3)cc2)CC1` it is > 1000 ×10⁻⁶ cm/s.
As for `Cc1c(C(=O)OCCOc2ccccc2)[nH]c2c1C(=O)CC(c1ccccc1)C2` (configuration not stated), the figure is 276 ×10⁻⁶ cm/s; as for `O=C(NC1CC1)C1CCCN1C(=O)c1cccc(-c2ccccn2)c1` (configuration not stated), 11 ×10⁻⁶ cm/s; as for `Fc1ccc(Nc2nc(-c3ccncc3Cl)nc3ccccc23)cc1F`, 72.2 ×10⁻⁶ cm/s.
As for `CC[C@@]1(O)C(=O)OCc2c1cc1n(c2=O)Cc2c-1nc1cc(F)c(C)c3c1c2[C@@H](N)CC3`, the figure is 370 ×10⁻⁶ cm/s.
For the molecule `NC(=O)C1CCN(c2nc(-c3ccc4c(c3)OCO4)cs2)CC1`, the apparent permeability (Papp) was found to be 740 ×10⁻⁶ cm/s.
The figure for `OCC(O)CCO/N=C1/C(c2c(O)[nH]c3ccccc23)=Nc2ccccc21` (configuration not stated) is 961 ×10⁻⁶ cm/s; for `CSc1cc2c(s1)c1cnn(Cc3cccc(N)c3)c(=O)c1n2C` it is > 1000 ×10⁻⁶ cm/s.
As for `CNC(=O)Cn1cc(-c2ccc3c(c2)C(F)CC32NC(=O)N(CC(=O)N(Cc3ccc(F)cc3)[C@@H](C)C(F)(F)F)C2=O)cn1` (some centres not stated), the figure is 115 ×10⁻⁶ cm/s; as for `COC(=O)c1ccnc(-c2cc(C(=O)NCCc3ccccc3)ccn2)c1`, 398 ×10⁻⁶ cm/s; as for `CCN1CCN(c2ccc3cc(S(=O)(=O)N4CCOCC4)ccc3n2)CC1`, > 1000 ×10⁻⁶ cm/s.
The figure for `O=S(=O)(Nc1ccccc1)c1ccc(NCc2cccc(Cl)c2O)cc1` is 487 ×10⁻⁶ cm/s.
In turn, `CCOc1ccc(C2c3c(oc4ccc(C)cc4c3=O)C(=O)N2CCCN(C)C)cc1` (configuration not stated) registered a Papp of 516 ×10⁻⁶ cm/s.
Consider `CC(=O)c1c(C)[nH]c(C(=O)Nc2cccc([S+](=O)([O-])N3CCC(F)(F)CC3)c2)c1C`, for which the apparent permeability (Papp) is > 1000 ×10⁻⁶ cm/s.
The figure for `CCCCn1cc2c(c1-c1ccc(Br)cc1)c(=O)n(C)c(=O)n2C` is > 1000 ×10⁻⁶ cm/s; for `C=Cc1ccc(Cn2c(C(=O)O)c(CNCc3ccccc3)c3ccc(OC)cc32)cc1` it is 900 ×10⁻⁶ cm/s.
The figure for `Cc1cc(-c2nnc3n2CCCCC3)c(C)n1-c1ccc(F)cc1` is 314 ×10⁻⁶ cm/s; for `COc1ccc(Nc2cc(C)nc(-n3nc(C)cc3C)n2)cc1Cl` it is > 1000 ×10⁻⁶ cm/s; for `CC1CC(C)(C)N(C(=O)CN2C(=O)c3ccccc3C2=O)c2ccccc21` (configuration not stated) it is > 1000 ×10⁻⁶ cm/s.
As for `Cc1ccccc1N(C)C1CN([S+](=O)([O-])c2cccc(C(F)(F)F)c2)C1`, the figure is 991 ×10⁻⁶ cm/s.
Turning to `O=C(O)CNC(=O)c1c(O)c2ccccc2n(Cc2ccccc2)c1=O`, the Papp stood at 14.6 ×10⁻⁶ cm/s.
In turn, `Fc1ccccc1Nc1nc(-c2ccncc2)nc2ccccc12` registered a Papp of 839 ×10⁻⁶ cm/s.
The figure for `CCC(Sc1nc2ccccc2c2nc(CCc3c(C)n[nH]c3C)nn12)C(=O)Nc1ccc(F)cc1` (configuration not stated) is 37.9 ×10⁻⁶ cm/s; for `CC(C)CC(C)NC(=O)c1noc(-c2ccc[nH]c2=O)n1` (configuration not stated) it is 16.6 ×10⁻⁶ cm/s.
As to `CS(=O)(=O)c1ccccc1-c1csc(N2CCC(C(N)=O)CC2)n1`, the Papp was 11.9 ×10⁻⁶ cm/s.
As for `c1ccc(Nc2nc(NCc3ccco3)c3ccccc3n2)cc1`, the figure is 930 ×10⁻⁶ cm/s; as for `NC(=O)C1CCN(c2nc(-c3cccc(C(F)(F)F)c3)cs2)CC1`, 566 ×10⁻⁶ cm/s; as for `COc1cc(NC(=O)c2cc(-c3ccccc3O)no2)cc(OC)c1OC`, 680 ×10⁻⁶ cm/s.
`Cc1ccccc1-c1nc(NCc2cccs2)c2ccccc2n1` registered a Papp of 406 ×10⁻⁶ cm/s.
The figure for `CC/C=C\C/C=C\C/C=C\C/C=C\C/C=C\C/C=C\CCC(=O)NCCO` is 298 ×10⁻⁶ cm/s.
As for `Fc1cc(Nc2nc(-c3ccncc3)nc3ccccc23)ccc1-c1cccc(OC(F)(F)F)c1`, the figure is 23.5 ×10⁻⁶ cm/s; as for `O=C(NCCCc1ccccc1)C1CCN(c2nc(-c3ccc(Br)cc3)cs2)CC1`, 18 ×10⁻⁶ cm/s; as for `O=C1Nc2ccc(Cl)cc2/C1=C\c1cc(Cl)c(O)c(Cl)c1`, 69.5 ×10⁻⁶ cm/s.
In the case of `CCCc1oc2ccc(NS(=O)(=O)c3ccc(OC)cc3)cc2c1C(=O)OCC`, the Papp was < 1 ×10⁻⁶ cm/s.
The figure for `CNc1oc(-c2ccccc2-c2ccccc2)nc1C#N` is 906 ×10⁻⁶ cm/s.
In the case of `CC(C)c1nc(CN(C)C(=O)N[C@H](C(=O)N[C@@H](Cc2ccccc2)C[C@H](O)[C@H](Cc2ccccc2)NC(=O)OCc2cncs2)C(C)C)cs1`, the apparent permeability coefficient (Papp) was > 1000 ×10⁻⁶ cm/s.
As for `COc1ccc(Nc2nc(-c3cccc(OC)c3)no2)cc1`, the figure is 34.5 ×10⁻⁶ cm/s; as for `S=C(NCCCc1cnc[nH]1)NCCCN(Cc1ccc(Cl)c(Cl)c1)c1ccc(Br)cn1`, 14 ×10⁻⁶ cm/s; as for `Cc1ccc(C2=NN=C(NC(=O)CSc3nncn3C)SC2)cc1`, 147 ×10⁻⁶ cm/s.
As for `CCc1ccc(NC(=O)c2[nH]c(C)c(C(C)=O)c2C)cc1[S+](=O)([O-])N1CCCCCC1`, the figure is 227 ×10⁻⁶ cm/s.
In the case of `Clc1ccccc1Nc1nc(-c2ccncc2)nc2ccccc12`, the apparent permeability coefficient (Papp) is > 1000 ×10⁻⁶ cm/s.
The molecule `Cc1ccccc1NC(=O)Nc1cccs1` displayed an apparent permeability (Papp) of 106 ×10⁻⁶ cm/s.
The figure for `CC1(C)CCC(c2ccc(Cl)cc2)=C(CN2CCN(c3ccc(C(=O)NS(=O)(=O)c4ccc(N[C@H](CCN5CCOCC5)CSc5ccccc5)c(S(=O)(=O)C(F)(F)F)c4)cc3)CC2)C1` is 1.1 ×10⁻⁶ cm/s.
